Results taken from BindingDB's records for doi:10.1021/jm800940u (Schering-Plough Research Institute, 2009).
pKi: −log10 of the molar value.

Target: Genome polyprotein (Hepatitis C virus genotype 1a (isolate H77), UniProt P27958)
Experiment: Continuous Spectrophotometric Assay
Settings: pH 6.5; 30 °C
Method: Proteolytic cleavage of the ester linkage between the Nva (L-norvaline) and the chromophore (PAP) was monitored for change in absorbance at 370 nm. Initial velocities were determined using linear regression and kinetic constants were obtained by fitting the data to the Michaelis-Menten equation.

Chain of Genome polyprotein (P27958 1027-1657 limits assumed): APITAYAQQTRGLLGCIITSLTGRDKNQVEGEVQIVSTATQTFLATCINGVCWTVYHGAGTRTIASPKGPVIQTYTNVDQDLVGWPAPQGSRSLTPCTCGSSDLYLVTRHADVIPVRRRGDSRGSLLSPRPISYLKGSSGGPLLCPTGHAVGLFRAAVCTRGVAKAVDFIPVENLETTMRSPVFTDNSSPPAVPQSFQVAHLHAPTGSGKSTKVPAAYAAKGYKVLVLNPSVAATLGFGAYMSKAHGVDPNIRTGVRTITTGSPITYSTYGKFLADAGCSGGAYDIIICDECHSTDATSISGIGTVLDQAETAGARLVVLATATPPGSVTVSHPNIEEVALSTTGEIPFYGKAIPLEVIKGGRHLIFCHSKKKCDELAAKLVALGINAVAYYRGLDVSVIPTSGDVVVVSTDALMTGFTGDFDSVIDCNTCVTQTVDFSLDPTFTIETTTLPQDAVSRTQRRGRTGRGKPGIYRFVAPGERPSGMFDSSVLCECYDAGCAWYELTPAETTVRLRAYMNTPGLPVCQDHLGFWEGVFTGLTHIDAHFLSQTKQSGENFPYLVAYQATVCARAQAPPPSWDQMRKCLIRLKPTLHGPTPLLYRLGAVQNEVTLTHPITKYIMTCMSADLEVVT

pKi | Compound
7.68 | CN(C[C@@H](NC(=O)N[C@H]1CCCCCCCCC[C@@H](C(=O)C(=O)NCC2CC2)NC(=O)[C@@H]2[C@@H]3[C@H](CN2C1=O)C3(C)C)C(C)(C)C)S(=O)(=O)c1cccs1 [N-(cyclopropylmethyl)-2-[(3S,13S,16S,17R,19S)-3-({[(2S)-3,3-dimethyl-1-[methyl(thiophene-2-)sulfonamido]butan-2-yl]carbamoyl}amino)-18,18-dimethyl-2,15-dioxo-1,14-diazatricyclo[14.4.0.0^{17,19}]icosan-13-yl]-2-oxoacetamide]
7.43 | CC(C)(C)OC(=O)[C@@H](NC(=O)N[C@H]1CCCCCCCCCC[C@@H](C(=O)C(N)=O)NC(=O)[C@@H]2[C@@H]3[C@H](CN2C1=O)C3(C)C)C(C)(C)C [tert-butyl (2S)-2-({[(3S,14S,17S,18R,20S)-14-(carbamoylcarbonyl)-19,19-dimethyl-2,16-dioxo-1,15-diazatricyclo[15.4.0.0^{18,20}]henicosan-3-yl]carbamoyl}amino)-3,3-dimethylbutanoate]
6.60 | C=CCCCC[C@H](NC(=O)[C@@H]1[C@@H]2[C@H](CN1C(=O)[C@H](CCCCC=C)NC(=O)OC(C)(C)C)C2(C)C)C(=O)C(N)=O [tert-butyl N-[(2S)-1-[(1R,2S,5S)-2-{[(2S)-1-carbamoyl-1-oxooct-7-en-2-yl]carbamoyl}-6,6-dimethyl-3-azabicyclo[3.1.0]hexan-3-yl]-1-oxooct-7-en-2-yl]carbamate]
8.30 | CN(C)C(=O)[C@@H](NC(=O)CNC(=O)C(=O)[C@@H]1CCCC/C=C/CCCC[C@H](NC(=O)OC(C)(C)C)C(=O)N2C[C@H]3[C@@H]([C@H]2C(=O)N1)C3(C)C)c1ccccc1 [tert-butyl N-[(3S,8E,14S,17S,18R,20S)-14-{[({[(S)-(dimethylcarbamoyl)(phenyl)methyl]carbamoyl}methyl)carbamoyl]carbonyl}-19,19-dimethyl-2,16-dioxo-1,15-diazatricyclo[15.4.0.0^{18,20}]henicos-8-en-3-yl]carbamate]
6.68 | CC(C)(C)OC(=O)N[C@H]1CCCCCCC[C@@H](C(=O)C(N)=O)NC(=O)[C@@H]2[C@@H]3[C@H](CN2C1=O)C3(C)C [tert-butyl N-[(3S,11S,14S,15R,17S)-11-(carbamoylcarbonyl)-16,16-dimethyl-2,13-dioxo-1,12-diazatricyclo[12.4.0.0^{15,17}]octadecan-3-yl]carbamate]
7.44 | CC(C)(C)OC(=O)N[C@H]1CCCCCCCC[C@@H](C(=O)C(N)=O)NC(=O)[C@@H]2[C@@H]3[C@H](CN2C1=O)C3(C)C [tert-butyl N-[(3S,12S,15S,16R,18S)-12-(carbamoylcarbonyl)-17,17-dimethyl-2,14-dioxo-1,13-diazatricyclo[13.4.0.0^{16,18}]nonadecan-3-yl]carbamate]
7.52 | CC(C)(C)OC(=O)N[C@H]1CCCCCCCCC[C@@H](C(=O)C(N)=O)NC(=O)[C@@H]2[C@@H]3[C@H](CN2C1=O)C3(C)C [tert-butyl N-[(3S,13S,16S,17R,19S)-13-(carbamoylcarbonyl)-18,18-dimethyl-2,15-dioxo-1,14-diazatricyclo[14.4.0.0^{17,19}]icosan-3-yl]carbamate]
7.23 | CC(C)(C)OC(=O)N[C@H]1CCCCCCCCCC[C@@H](C(=O)C(N)=O)NC(=O)[C@@H]2[C@@H]3[C@H](CN2C1=O)C3(C)C [tert-butyl N-[(3S,14S,17S,18R,20S)-14-(carbamoylcarbonyl)-19,19-dimethyl-2,16-dioxo-1,15-diazatricyclo[15.4.0.0^{18,20}]henicosan-3-yl]carbamate]
7.05 | CC(C)(C)OC(=O)N[C@H]1CCCCCCCCCC[C@@H](C(=O)C(=O)NCC(=O)NCc2ccccc2)NC(=O)[C@@H]2[C@@H]3[C@H](CN2C1=O)C3(C)C [tert-butyl N-[(3S,14S,17S,18R,20S)-14-({[(benzylcarbamoyl)methyl]carbamoyl}carbonyl)-19,19-dimethyl-2,16-dioxo-1,15-diazatricyclo[15.4.0.0^{18,20}]henicosan-3-yl]carbamate]
5.22 | CC(C)(C)NC(=O)C(=O)[C@@H]1CCCCCCCCCC[C@H](NC(=O)OC(C)(C)C)C(=O)N2C[C@H]3[C@@H]([C@H]2C(=O)N1)C3(C)C [tert-butyl N-[(3S,14S,17S,18R,20S)-14-[(tert-butylcarbamoyl)carbonyl]-19,19-dimethyl-2,16-dioxo-1,15-diazatricyclo[15.4.0.0^{18,20}]henicosan-3-yl]carbamate]
8.22 | CN(C)C(=O)[C@@H](NC(=O)CNC(=O)C(=O)[C@@H]1CCCCCCCCCC[C@H](NC(=O)OC(C)(C)C)C(=O)N2C[C@H]3[C@@H]([C@H]2C(=O)N1)C3(C)C)c1ccccc1 [tert-butyl N-[(3S,14S,17S,18R,20S)-14-{[({[(S)-(dimethylcarbamoyl)(phenyl)methyl]carbamoyl}methyl)carbamoyl]carbonyl}-19,19-dimethyl-2,16-dioxo-1,15-diazatricyclo[15.4.0.0^{18,20}]henicosan-3-yl]carbamate]
